In data set [1] the target is cAMP and cAMP-inhibited cGMP 3',5'-cyclic phosphodiesterase 10A (Homo sapiens, UniProt Q9Y233). The data set can be described thus: Inhibition of human PDE10A using cAMP as substrate preincubated for 30 mins followed by substrate addition and measured after 60 mins by HTRF detection assay. On the technique in general: Time-resolved FRET reads energy transfer from a long-lived donor to a nearby acceptor.

The next data set concerns LLC-PK1. The data set can be described thus: Ratio of efflux ratio of LLC-PK1 cells expressing human MDR1 at 1 uM to efflux ratio of wild type LLC-PK1 cells at 1 uM. To be noted: pig, llc-pk1, 1 µM. The data set is classed as ADME, cell-based, Sus scrofa.
The nature of data set [2]: Apparent permeability in wild type pig LLC-PK1 cells at 1 uM incubated for 3 hrs by […] LC-MS/MS analysis. The data set is classed as ADME, cell-based, Sus scrofa.
A short description of data set [3]: Drug uptake in mouse brain at 0.1 mg/kg, po measured after 1 hr by LC-MS/MS analysis. The data set is classed as ADME, organism-based.
Data set [4] is described as follows: Drug uptake in mouse plasma at 0.1 mg/kg, po measured after 1 hr by LC-MS/MS analysis. It counts as ADME, organism-based.
Data set [5] is described as follows: Lipophilicity, logD of the compound at pH 7.4. It counts as physicochemical. To be noted: buffer.
Data set [6] can be described thus: Intrinsic clearance in human liver microsomes by LC-MS/MS analysis. It counts as ADME, Microsome. (Microsomes from liver hold many membrane-bound enzymes, among them those of drug oxidation.)
A further data set deals with CYP2D6 (Homo sapiens, UniProt P10635). The data set can be described thus: Inhibition of CYP2D6 in human liver microsomes assessed as enzyme residual activity incubated for 30 mins by LC-MS/MS analysis relative to control. The data set is classed as ADME. To be noted: read-out: Activity.
The next data set concerns the target T1, CYP2C8 (Homo sapiens, UniProt P10632).
T1 sequence (P10632 whole entry): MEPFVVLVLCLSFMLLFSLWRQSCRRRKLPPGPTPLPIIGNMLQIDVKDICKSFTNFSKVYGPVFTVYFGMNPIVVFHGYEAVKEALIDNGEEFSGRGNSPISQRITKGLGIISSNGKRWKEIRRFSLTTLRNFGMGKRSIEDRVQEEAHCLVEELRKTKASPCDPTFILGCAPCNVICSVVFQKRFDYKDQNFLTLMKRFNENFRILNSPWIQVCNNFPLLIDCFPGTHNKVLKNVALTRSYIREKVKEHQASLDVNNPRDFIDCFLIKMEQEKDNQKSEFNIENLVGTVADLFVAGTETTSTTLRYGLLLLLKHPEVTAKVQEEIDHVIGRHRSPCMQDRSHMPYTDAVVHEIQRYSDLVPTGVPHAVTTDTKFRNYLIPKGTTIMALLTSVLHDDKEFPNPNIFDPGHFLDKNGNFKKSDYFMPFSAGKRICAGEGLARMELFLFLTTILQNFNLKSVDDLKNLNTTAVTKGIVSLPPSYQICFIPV
Kind of data set: Inhibition of CYP2C8 in human liver microsomes assessed as enzyme residual activity incubated for 30 mins by LC-MS/MS analysis relative to control. To be noted: read-out: Activity. It counts as ADME.

Another data set deals with CYP2C19 (Homo sapiens, UniProt P33261). The data set can be described thus: Inhibition of CYP2C19 in human liver microsomes assessed as enzyme residual activity incubated for 30 mins by LC-MS/MS analysis relative to control. To be noted: read-out: Activity. The data set is classed as ADME.
Data set [7] can be described thus: Intrinsic clearance in mouse liver microsomes by LC-MS/MS analysis. The data set is classed as ADME, Microsome. To be noted: read-out: CLH.
Data set [8] relates to Mus musculus. The data set can be described thus: Effect on mean number of arm entries in ddY mouse at 0.03 to 0.3 mg/kg, po pretreated 40 mins before MK-801 dosing and measured after 20 mins by Y-maze test. To be noted: in vivo. It counts as organism-based.
Data set [9] can be described thus: Total brain to plasma partition coefficient, Kp in mouse at 0.1 mg/kg, po measured after 1 hr by LC-MS/MS analysis. The data set is classed as ADME, organism-based.
The next data set addresses T2, CYP1A2 (Homo sapiens, UniProt P05177).
T2 sequence (P05177 whole entry): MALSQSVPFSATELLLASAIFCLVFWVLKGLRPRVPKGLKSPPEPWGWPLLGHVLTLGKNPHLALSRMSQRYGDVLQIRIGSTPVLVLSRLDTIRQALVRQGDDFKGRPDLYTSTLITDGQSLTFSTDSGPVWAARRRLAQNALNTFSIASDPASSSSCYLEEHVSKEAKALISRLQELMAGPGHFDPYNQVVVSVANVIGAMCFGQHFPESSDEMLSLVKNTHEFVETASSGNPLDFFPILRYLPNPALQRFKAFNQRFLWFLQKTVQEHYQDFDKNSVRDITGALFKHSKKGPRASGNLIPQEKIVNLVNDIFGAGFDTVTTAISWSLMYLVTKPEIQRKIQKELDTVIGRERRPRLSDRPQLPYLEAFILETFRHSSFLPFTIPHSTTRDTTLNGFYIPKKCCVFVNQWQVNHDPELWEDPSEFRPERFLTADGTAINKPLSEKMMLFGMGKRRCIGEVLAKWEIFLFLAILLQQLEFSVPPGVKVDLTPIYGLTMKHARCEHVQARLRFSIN
Kind of data set: Inhibition of CYP1A2 in human liver microsomes assessed as enzyme residual activity incubated for 30 mins by LC-MS/MS analysis relative to control. It counts as ADME. To be noted: read-out: Activity.

For another data set, the target named is CYP2C9 (Homo sapiens, UniProt P11712). Kind of data set: Inhibition of CYP2C9 in human liver microsomes assessed as enzyme residual activity incubated for 30 mins by LC-MS/MS analysis relative to control. The data set is classed as ADME. To be noted: read-out: Activity.
Data set [10] relates to Mus musculus. The data set can be described thus: Antipsychotic activity in ICR mouse assessed as inhibition of Phencyclidine-induced hyperlocomotion pretreated orally followed by Phencyclidine injection and measured after 60 mins. It counts as functional, organism-based.
The subject of data set [11] is Mus musculus. Kind of data set: Cognition enhancement activity in ddY mouse assessed as suppression of MK-801-induced working memory deficit by measuring decrease in spontaneous alternation behavior at 0.1 to 0.3 mg/kg, po pretreated 40 mins before MK-801 dosing and measured after 20 mins by Y-maze test. The data set is classed as functional, organism-based.
In the next data set the target is CYP3A4 (Homo sapiens, UniProt P08684). The data set can be described thus: Inhibition of CYP3A4 in human liver microsomes assessed as enzyme residual activity incubated for 30 mins by LC-MS/MS analysis relative to control. The data set is classed as ADME. To be noted: read-out: Activity.
Data set [12] concerns Mus musculus. The data set can be described thus: Effect on mean number of arm entries in ddY mouse at 1 mg/kg, po pretreated 40 mins before MK-801 dosing and measured after 20 mins by Y-maze test. The data set is classed as organism-based. To be noted: in vivo.
Data set [13] is described as follows: Solubility of the compound in pH 6.8 JP2 buffer. It counts as physicochemical.
Data set [14] can be described thus: Toxicity in ICR mouse assessed as induction of catalepsy up to 100 mg/kg, po treated for 60 mins and measured up to 120 secs by bar test. It counts as organism-based. To be noted: in vivo.

In brackets after ≈: the same amount, converted by molar mass. Activity calls are given as the source filed them. The rule behind the calls is not given here. Where only a bound is given, the exact number is not on record here.

Sequence of cAMP and cAMP-inhibited cGMP 3',5'-cyclic phosphodiesterase 10A (Q9Y233 whole entry): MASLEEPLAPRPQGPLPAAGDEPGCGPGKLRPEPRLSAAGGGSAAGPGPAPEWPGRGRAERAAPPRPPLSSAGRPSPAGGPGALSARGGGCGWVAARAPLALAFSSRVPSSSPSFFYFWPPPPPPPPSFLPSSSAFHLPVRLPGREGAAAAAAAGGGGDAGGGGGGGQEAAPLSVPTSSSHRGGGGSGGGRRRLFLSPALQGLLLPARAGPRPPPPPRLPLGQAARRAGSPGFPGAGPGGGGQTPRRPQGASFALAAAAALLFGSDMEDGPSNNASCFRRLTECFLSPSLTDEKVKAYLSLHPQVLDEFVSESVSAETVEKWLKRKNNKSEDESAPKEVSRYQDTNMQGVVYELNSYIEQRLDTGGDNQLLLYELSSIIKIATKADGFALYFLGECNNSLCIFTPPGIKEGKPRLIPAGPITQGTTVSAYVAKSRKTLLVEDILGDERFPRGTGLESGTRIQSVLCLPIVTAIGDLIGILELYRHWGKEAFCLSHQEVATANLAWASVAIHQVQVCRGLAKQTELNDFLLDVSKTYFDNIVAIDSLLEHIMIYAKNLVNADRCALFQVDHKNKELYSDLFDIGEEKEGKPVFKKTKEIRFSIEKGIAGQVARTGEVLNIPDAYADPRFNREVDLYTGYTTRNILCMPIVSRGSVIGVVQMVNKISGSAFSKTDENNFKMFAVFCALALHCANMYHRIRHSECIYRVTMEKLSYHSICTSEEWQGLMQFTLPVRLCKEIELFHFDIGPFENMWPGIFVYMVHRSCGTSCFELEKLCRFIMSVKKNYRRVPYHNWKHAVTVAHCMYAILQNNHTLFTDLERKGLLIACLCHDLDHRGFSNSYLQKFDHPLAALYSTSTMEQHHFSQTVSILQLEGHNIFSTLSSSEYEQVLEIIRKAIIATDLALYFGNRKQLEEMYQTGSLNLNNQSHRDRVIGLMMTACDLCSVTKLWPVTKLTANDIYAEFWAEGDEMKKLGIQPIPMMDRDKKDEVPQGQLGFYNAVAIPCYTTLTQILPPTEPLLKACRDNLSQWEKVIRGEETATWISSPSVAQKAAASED
Sequence of CYP3A4 (P08684 whole entry): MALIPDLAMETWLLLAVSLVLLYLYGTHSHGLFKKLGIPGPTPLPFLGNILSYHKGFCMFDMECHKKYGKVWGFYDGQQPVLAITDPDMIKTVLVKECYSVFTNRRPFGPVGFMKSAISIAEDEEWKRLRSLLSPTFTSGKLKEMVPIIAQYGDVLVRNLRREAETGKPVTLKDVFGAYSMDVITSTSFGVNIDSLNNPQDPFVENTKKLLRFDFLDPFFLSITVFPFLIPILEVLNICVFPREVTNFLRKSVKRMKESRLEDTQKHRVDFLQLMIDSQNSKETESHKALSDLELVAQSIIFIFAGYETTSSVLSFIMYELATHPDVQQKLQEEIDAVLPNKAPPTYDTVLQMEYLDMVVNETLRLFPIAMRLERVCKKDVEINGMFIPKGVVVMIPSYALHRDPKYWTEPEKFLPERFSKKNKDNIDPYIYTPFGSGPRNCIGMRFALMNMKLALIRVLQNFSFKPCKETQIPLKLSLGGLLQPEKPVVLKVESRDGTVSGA
Sequence of CYP2C9 (P11712 whole entry): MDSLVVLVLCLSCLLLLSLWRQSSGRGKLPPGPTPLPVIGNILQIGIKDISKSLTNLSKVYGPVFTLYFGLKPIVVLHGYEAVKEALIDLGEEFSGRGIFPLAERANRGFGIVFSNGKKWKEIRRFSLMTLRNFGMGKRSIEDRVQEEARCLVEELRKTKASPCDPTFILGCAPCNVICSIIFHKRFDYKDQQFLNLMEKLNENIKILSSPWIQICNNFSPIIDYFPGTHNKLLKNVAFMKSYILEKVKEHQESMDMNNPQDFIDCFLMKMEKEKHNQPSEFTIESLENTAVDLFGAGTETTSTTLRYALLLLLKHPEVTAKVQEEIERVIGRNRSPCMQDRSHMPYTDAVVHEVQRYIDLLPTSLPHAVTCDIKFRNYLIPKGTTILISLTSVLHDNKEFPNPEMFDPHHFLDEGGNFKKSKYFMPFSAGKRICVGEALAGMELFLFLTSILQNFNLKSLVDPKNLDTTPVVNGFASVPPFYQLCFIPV
Sequence of CYP2D6 (P10635 whole entry): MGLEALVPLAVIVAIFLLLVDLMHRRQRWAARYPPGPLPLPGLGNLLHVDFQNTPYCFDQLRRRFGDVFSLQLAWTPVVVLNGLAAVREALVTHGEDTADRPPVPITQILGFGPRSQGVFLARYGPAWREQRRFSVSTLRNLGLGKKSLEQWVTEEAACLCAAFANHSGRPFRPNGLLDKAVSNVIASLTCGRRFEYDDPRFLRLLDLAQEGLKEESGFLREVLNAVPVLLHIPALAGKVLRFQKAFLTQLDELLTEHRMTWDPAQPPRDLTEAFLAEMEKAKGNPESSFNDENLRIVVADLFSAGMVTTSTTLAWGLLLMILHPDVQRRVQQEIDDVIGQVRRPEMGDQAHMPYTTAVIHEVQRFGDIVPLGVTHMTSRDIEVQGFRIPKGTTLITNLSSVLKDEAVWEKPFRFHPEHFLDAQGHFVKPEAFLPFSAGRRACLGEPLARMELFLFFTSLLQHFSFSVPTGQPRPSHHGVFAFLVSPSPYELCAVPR
Sequence of CYP2C19 (P33261 whole entry): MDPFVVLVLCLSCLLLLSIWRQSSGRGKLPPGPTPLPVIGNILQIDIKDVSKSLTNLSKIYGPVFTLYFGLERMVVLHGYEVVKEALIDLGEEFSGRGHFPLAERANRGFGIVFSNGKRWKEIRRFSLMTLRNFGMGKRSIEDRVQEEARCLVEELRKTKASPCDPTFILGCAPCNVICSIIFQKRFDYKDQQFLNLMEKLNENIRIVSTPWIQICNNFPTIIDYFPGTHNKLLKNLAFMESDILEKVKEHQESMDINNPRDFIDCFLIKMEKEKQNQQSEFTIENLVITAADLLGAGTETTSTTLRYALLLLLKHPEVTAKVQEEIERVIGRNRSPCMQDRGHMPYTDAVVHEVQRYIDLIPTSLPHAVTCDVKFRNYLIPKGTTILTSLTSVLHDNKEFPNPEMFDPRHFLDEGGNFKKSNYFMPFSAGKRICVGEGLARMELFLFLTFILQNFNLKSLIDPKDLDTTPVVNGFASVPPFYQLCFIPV

A word on the IC50: it is the concentration that inhibits the measured activity by half. A higher IC50 goes with a need for much substance. In data set [1], `Cc1cc(C)n2nc(CC(=O)N3c4nc5ccccc5n4CC3C)nc2n1` (racemic) showed a concentration for half-maximal inhibition (IC50) of 69 nM. For the same compound, the Ratio with LLC-PK1 turned out to be 2.4.

`Cc1cc(C)n2nc(CC(=O)N3CCn4c3nc3c(C)cccc34)nc2n1`: in data set [1], the IC50 was above 10000 nM.

`Cc1cc(C)n2cc(CC(=O)N3CCn4c3nc3ccccc34)nc2n1` yielded a concentration for half-maximal inhibition (IC50) in [1] of 275 nM. In the data set on LLC-PK1, the Ratio is listed as 1.

Consider `Cc1ccc2nc3n(c2c1)CCN3C(=O)Cc1nc2nc(C)cc(C)n2n1`, for which, in data set [1], the IC50 was found to be 416 nM.

Regarding `Cc1cc(C)n2nc(CC(=O)N3c4nc5ccccc5n4C[C@H]3c3ccccc3)nc2n1`, inhibition in [1] was half-maximal at 1920 nM (IC50).

In data set [1], `Cc1cc(C)n2nc(CC(=O)N3c4nc5ccccc5n4C[C@@H]3c3ccccc3)nc2n1` displayed a 50% inhibitory concentration (IC50) of 75 nM. Moreover, the Ratio in the data set with LLC-PK1 is 3.8.

The compound `Cc1cc(C)n2nc(CC(=O)N3c4nc5ccccc5n4CC3(C)C)nc2n1` had an IC50 in [1] of 74 nM. Further, the Ratio in the data set with LLC-PK1 stood at 2.1.

Regarding `Cc1cc(C)n2nc(CC(=O)N3CCn4c3nc3ccccc34)nc2c1`, the concentration for half-maximal inhibition (IC50) in data set [1] was found to be 135 nM. Also, the Ratio in the data set with LLC-PK1 came to 1.2.

The term Papp denotes a coefficient for how fast a substance crosses the barrier. Turning to `Cc1cc(C)n2nc(CCN3CCn4c3nc3ccccc34)nc2n1`, the Papp at 3 h, 1 µM in [2] is 19.2 ×10⁻⁶ cm/s. The compound also returned an IC50 in data set [1] of 138 nM. For the same compound, the Ratio with LLC-PK1 is listed as 3.6.

On to `Cc1ccc2c(c1)nc1n2CCN1C(=O)Cc1nc2nc(C)cc(C)n2n1`, for which, in data set [1], half-maximal inhibition (IC50) required 441 nM.

In turn, `Cc1cc(C)n2nc(CCNc3cnc4ccccc4n3)nc2n1` displayed an IC50 in [1] of 1220 nM.

`Cc1cc(C)n2nc(CCNc3nc4ccccc4[nH]3)nc2n1` had an IC50 in [1] of 105 nM.

The logD is lipophilicity at a set pH, counting ionised and neutral species. Low values mean lower lipophilicity, high ones higher lipophilicity. For the compound `Cc1cc(C)n2nc(CCc3cc(O)n4nc5ccccc5c4n3)nc2n1`, the Papp at 3 h, 1 µM in data set [2] was 3.2 ×10⁻⁶ cm/s. The Drug uptake result in [3] (in vivo, 1 h) was “Not Active”. The IC50 in [1] amounted to 2 nM. Also, the concentration at 1 h in [4] was determined as 0.59 ng/mL. In addition, in the data set with LLC-PK1, the Ratio is 1.8. The compound also yielded a logD in data set [5] of 0.3.

In the case of `Cc1cc(C)n2nc(CCc3cc(O)n4nc5ncccc5c4n3)nc2n1`, inhibition in [1] was half-maximal at 2.9 nM (IC50).

For `Cc1cc(C)n2nc(CC(=O)N3CCCn4c3nc3ccccc34)nc2n1`, 1480 nM corresponded to half-maximal inhibition in data set [1] (IC50).

`Cc1cc(C)n2nc(CCc3ccn4nc5ccccc5c4n3)nc2n1` gave a 50% inhibitory concentration (IC50) in data set [1] of 78 nM.

The compound `Cc1cc(C)n2nc(CC(=O)N3c4nc5ccccc5n4C[C@@H]3C)nc2n1` yielded an IC50 in data set [1] of 28 nM. Besides, the Ratio in the data set on LLC-PK1 was 2.4.

`Cc1cc(C)n2nc(CC(=O)N3CC(C)n4c3nc3ccccc34)nc2n1` (stereo unspecified) came in with a 50% inhibitory concentration (IC50) in data set [1] of 292 nM.

For the compound `Cc1cc(C)n2nc(CCNc3nc4ccccc4n3C)nc2n1`, the IC50 in [1] stood at 88 nM.

Usually Kp stands for the ratio of the level in a tissue or fluid to that in plasma or blood. Usually solubility stands for the dissolved amount per volume that the medium holds. Higher therefore signals much dissolved substance. For `Cc1ncc(C)n2nc(CC(=O)N3c4nc5ccccc5n4C[C@@H]3C)nc12`, the Papp at 3 h, 1 µM in data set [2] amounted to 27.5 ×10⁻⁶ cm/s. For the same compound, the CLH result in [6] is listed as “Stable”. Moreover, the activity at 0.5 h turned out to be 102% at CYP2D6; 99% at CYP2C8; 90% on CYP2C19; 98% on CYP1A2; 96% at CYP2C9; 90% at CYP3A4. Also, the concentration at 1 h was 2.2 ng/g in data set [3] (brain, read-out: Drug uptake) and 0.91 ng/mL in [4]. The compound also gave a half-maximal inhibitory concentration (IC50) in data set [1] of 8.4 nM. The Ratio in the data set on LLC-PK1 was found to be 1.2. Besides, the CLint scaled in data set [7] was found to be 175 mL/min/kg. In addition, the Activity result was “Non-Toxic” with Mus musculus [8], “Dose-dependent effect” in the data set with Mus musculus [10], “Toxic” in the data set on Mus musculus [12] and “Non-Toxic” in [14]. In data set [9], the Kp at 1 h came out at 2.3. For the same compound, in the data set with Mus musculus [11], the Activity result is “Active”. This compound returned a logD in data set [5] of 2. The compound further came in with a solubility in [13] of 100 µM (≈ 36.1 µg/mL).

For `Cc1cc(C)n2nc(CCNc3ncc4ccccc4n3)nc2n1`, half-maximal inhibition in data set [1] (IC50) required 2080 nM.

On to `Cc1cc(C)n2nc(CC(=O)N3CCn4c3nc3ccccc34)nc2n1`, for which the Papp at 3 h, 1 µM in [2] came out at 16.8 ×10⁻⁶ cm/s. The 50% inhibitory concentration (IC50) in data set [1] was determined as 52 nM. The Ratio in the data set on LLC-PK1 was found to be 2.3.

In data set [1], `Cc1ncc(C)n2nc(CC(=O)N3CCn4c3nc3ccccc34)nc12` displayed an IC50 of 44 nM. In addition, the Ratio in the data set on LLC-PK1 was 1.3.

`Cc1cc(C)n2nc(CCNc3ccc4ccccc4n3)nc2n1` returned an IC50 in [1] of 294 nM.

Turning to `Cc1cc(C)n2nc(CC(=O)N3CCn4c3nc3cccc(C)c34)nc2n1`, in [1], it took 279 nM to reach half-maximal inhibition (IC50).

(Values after ChEMBL document CHEMBL4385640, “Synthesis, SAR study, and biological evaluation of novel 2,3-dihydro-1H-imidazo[1,2-a]benzimidazole derivatives as phosphodiesterase 10A inhibitors” (Bioorg Med Chem, 2019).)
